Measurements reported in patent publication EP0776896A1, “Heterocyclic compounds and their use” (priority 1995, dated 1997).
Like-named read-outs stand apart in the source and are kept apart here.

Experiments:
[1] = target: T1, muscarinic receptors (M1-site, pirenzepine sensitive site) (Rattus norvegicus, UniProt P08482); experiment: Inhibition of ^3HPRZ (pirenzepine) binding to rat cerebral cortex membranes; design: species or system male Wistar rats; conditions: 1.0 nM ^3HPRZ, 60 min at 20°C
T1 construct: Fresh cortex (0.1-1 9) from male Wistar rats (150-200 g) is homogenized; from tissue; host or cells: rat cerebral cortex membranes
T1 sequence (P08482 1-460): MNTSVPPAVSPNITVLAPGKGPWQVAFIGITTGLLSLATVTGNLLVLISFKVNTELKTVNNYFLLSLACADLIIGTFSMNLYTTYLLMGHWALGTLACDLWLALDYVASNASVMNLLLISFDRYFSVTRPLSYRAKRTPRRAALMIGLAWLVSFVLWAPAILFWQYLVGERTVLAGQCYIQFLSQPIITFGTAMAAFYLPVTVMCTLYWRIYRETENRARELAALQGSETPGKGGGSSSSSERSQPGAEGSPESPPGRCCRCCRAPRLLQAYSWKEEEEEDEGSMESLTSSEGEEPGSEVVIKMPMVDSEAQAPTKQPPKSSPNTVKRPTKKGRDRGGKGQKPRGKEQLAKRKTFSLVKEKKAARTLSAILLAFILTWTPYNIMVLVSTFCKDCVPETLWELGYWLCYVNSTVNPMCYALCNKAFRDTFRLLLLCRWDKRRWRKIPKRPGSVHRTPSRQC
Procedure: Furthermore the pharmacological properties of the compounds of the invention can also be illustrated by determining their capability to inhibit ^3HPRZ (pirenzepine, [N-methyl^-3H]) binding to rat cerebral cortex membranes.
Pirenzepine binds selectively to subtype of muscarinic receptors. Historically the type is named the M1-site, whereas pirenzepine sensitive site would be more appropriate. Although selective for M1-sites pirenzepine also interact with M2-sites.
(§1) All preparations are performed at 0-4°C unless otherwise indicated. Fresh cortex (0.1-1 9) from male Wistar rats (150-200 g) is homogenized for 5-10 s in 10 mL 20 mM Hepes pH: 7.4, with an Ultra-Turrax homogenizer. The homogenizer is rinsed with 2 x 10 mL of buffer and the combined suspension centrifuged for 15 min. at 40,000 x g. The pellet is washed three times with buffer. In each step the pellet is homogenized as before in 3 x 10 mL of buffer and centrifuged for 10 min. at 40,000 x g.
The final pellet is homogenized in 20 mM Hepes pH: 7.4 (100 mL per g of original tissue) and used for binding assay. Aliquots of 0.5 mL is added 20 µL of test solution and 25 µL of ^3HPRZ (1.0 nM, final conc.), mixed and incubated for 60 min. at 20°C. Non-specific binding is determined in triplicate using atropine (1.0 µg/mL, final conc.) as the test substance. After incubation samples are added 5 mL of ice-cold buffer and poured directly onto Whatman GF/C glass fiber filters under suction and immediately washed 2 times with 5 mL of ice-cold buffer. The amount of radioactivity on the filters are determined by conventional liquid scintillation counting. Specific binding is total binding minus non-specific binding.
Test substances are dissolved in 10 mL water, at a concentration of 0.22 mg/mL. 25-75% inhibition of specific binding must be obtained before calculation of IC50.
The test value will be given as IC50 (the concentration (nM) of the test substance which inhibits the specific binding of ^3HPRZ by 50%). IC50 = (applied test substance concentration) x(Cx/Co-Cx)nM where Co is specific binding in control assays and Cx is the specific binding in the test assay. (The calculations assume normal mass-action kinetics).

[2] = target: muscarinic acetylcholine receptors; experiment: Inhibition of specific binding of ^3H-Oxotremorine-M to rat cortex homogenate; design: species or system male Wistar rats; conditions: 1.0 nM ^3H-Oxotremorine, 30 min at 25°C, read-out: ^3H-Oxo-M IC50
Text: The pharmacological properties of the compounds of the invention can be illustrated by determining their capability to inhibit the specific binding of ^3H-Oxotremorine-M (^3H-Oxo). Birdsdall N.J.M., Hulme E.C., and Burgen A.S.V. (1980). "The Character of Muscarinic Receptors in Different Regions of the Rat Brain". Proc. Roy. Soc. London (Series B) 207,1.
^3H-Oxo labels muscarinic receptor in the CNS (with a preference for agonist domains of the receptors). Three different sites are labeled by ^3H-Oxo. […] Using the present experimental conditions only the high and medium affinity sites are determined.
The inhibitory effects of compounds on ^3H-oxo binding reflects the affinity for muscarinic acetylcholine receptors.
as §1, with “g)” for “9)”, “(150-250” for “(150-200”, “[…]” for “mM”, “with” for “with 2 x”, “2” for “3”
The final pellet is homogenized in 20 mM Hepes pH: 7.4 (100 mL per g of original tissue) and used for binding assay. Aliquots of 0.5 mL is added 25 µL of test solution and 25 µL of ^3H-Oxotremorine (1.0 nM, final concentration) mixed and incubated for 30 min. at 25°C. Non-specific binding is determined in triplicate using arecoline (1 µg/mL, final concentration) as the test substance. After incubation samples are added 5 mL of ice-cold buffer and poured directly onto Whatman GF/C glass fiber filters under suction and immediately washed 2 times with 5 mL of ice-cold buffer. The amount of radioactivity on the filters are determined by conventional liquid scintillation counting. Specific binding is total binding minus non specific binding.
Test substances are dissolved in 10 mL water (if necessary heated on a steam-bath for less than 5 min.) at a concentration of 2.2 mg/mL. 25-75% inhibition of specific binding must be obtained before calculation of IC50. The test value will be given as IC50 (the concentration (nM) of the test substance which inhibits the specific binding of ^3H-oxo by 50%). IC50 = (applied test substance concentration) x(Cx/Co-Cx)nM where Co is specific binding in control assays and Cx is the specific binding in the test assay. (The calculations assume normal mass-action kinetics).

Row | Structure (SMILES) | IC50 ([1]; read-out: ^3HPRZ IC50) [nM] | IC50 [2] [nM] | IC50 ([1]; ^3HPRZ IC50,nM) [nM]
1 | FC(F)(F)c1ccc(COc2nsnc2C2CC3CCC2NC3)cc1 (stereo not drawn) [Compound 33, EXO 2-Aza-6-(4-((4-trifluoromethylphenyl)methoxy)-1,2,5-thiadiaz-3-yl)-bicyclo[2.2.2]octane] | 273 |  | 
2 | CCCSc1nsnc1C1CC2CCC1NC2 (stereo not drawn) [Compound 11, ENDO 2-Aza-6-(4-propylthio-1,2,5-thiadiaz-3-yl)bicyclo[2.2.2]octane] | 13 | 4.1 | 
3 | CCCCOc1nsnc1C1CC2CCC1NC2 (single isomer, unassigned) [Compound 4, ENDO 2-aza-6-(4-butyloxy-1,2,5-thiadiaz-3-yl)-bicyclo[2.2.2]octane] | 17 | 4.2 | 
4 | N#Cc1ccc(CSc2nsnc2C2CC3CCC2NC3)cc1 (stereo not drawn) [Compound 23, ENDO 2-Aza-6-(4-((4-cyanophenyl)methylthio)-1,2,5-thiadiaz-3-yl)-bicyclo[2.2.2]octane] |  | 26 | 36
5 | CCCCSc1nsnc1C1CC2CCC1NC2 (stereo not drawn) [Compound 9, ENDO 2-aza-6-(4-butylthio-1,2,5-thiadiaz-3-yl)bicyclo[2.2.2]octane] | 2.7 | 2 | 
6 | FC(F)(F)CCCSc1nsnc1C1CC2CCC1NC2 (stereo not drawn) [Compound 20, ENDO 2-Aza-6-(4-((4,4,4-trifluorobutyl)thio)-1,2,5-thiadiaz-3-yl)-bicyclo[2.2.2]octane] | 5.5 |  | 
7 | N#Cc1ccc(CSc2nsnc2C2CC3CCC2NC3)cc1 (stereo not drawn) [Compound 24, EXO 2-Aza-6-(4-((4-cyanophenyl)methylthio)-1,2,5-thiadiaz-3-yl)-bicyclo[2.2.2]octane] |  | 60 | 91
8 | N#Cc1ccc(CSc2nsnc2C2CC3CCC2NC3)s1 (stereo not drawn) [Compound 25, ENDO 2-Aza-6-(4-((5-cyanothien-2-yl)methylthio)-1,2,5-thiadiaz-3-yl)-bicyclo[2.2.2]octane] | 6.2 |  | 
9 | CSc1nsnc1C1CC2CCC1NC2 (stereo not drawn) [Compound 19] | 128 | 18 | 
10 | CC(C)CCCSc1nsnc1C1CC2CCC1NC2 (stereo not drawn) [Compound 17] | 170 |  | 
11 | CCCCCOc1nsnc1C1CC2CCC1NC2 (stereo not drawn) [Compound 30, ENDO 2-aza-6-(4-pentoxy-1,2,5-thiadiaz-3-yl)-bicyclo[2.2.2]octane] | 15 |  | 
12 | CCCCOc1nsnc1C1CC2CCC1NC2 (single isomer, unassigned) [Compound 5, EXO 2-aza-6-(4-butyloxy-1,2,5-thiadiaz-3-yl)bicyclo[2.2.2]octane] | 139 | 143 | 
13 | CCCCCSc1nsnc1C1CC2CCC1NC2 (stereo not drawn) [Compound 16, EXO 2-aza-6-(4-pentylthio-1,2,5-thiadiaz-3-yl)-bicyclo[2.2.2]octane] |  | 83 | 45
14 | CCCCCSc1nsnc1C1CC2CCC1NC2 (stereo not drawn) [Compound 15, ENDO 2-aza-6-(4-thiopentyl-1,2,5-thiadiaz-3-yl)bicyclo[2.2.2]octane] |  | 3.4 | 5
15 | CSc1nsnc1C1CC2CCC1NC2 (stereo not drawn) [Compound 14, EXO 2-Aza-6-(4-methylthio-1,2,5-thiadiaz-3-yl)bicyclo[2.2.2]octane] | 365 | 685 | 
16 | CCCCCOc1nsnc1C1CC2CCC1NC2 (stereo not drawn) [Compound 31, EXO 2-aza-6-(4-pentoxy-1,2,5-thiadiaz-3-yl)bicyclo[2.2.2]octane] | 80 |  | 
17 | CCCCCCSc1nsnc1C1CC2CCC1NC2 (stereo not drawn) [Compound 27, EXO 2-Aza-6-(4-hexylthio-1,2,5-thiadiaz-3-yl)bicyclo[2.2.2]octane] | 2.3 |  | 
18 | N#Cc1ccc(CSc2nsnc2C2CC3CCC2NC3)s1 (stereo not drawn) [Compound 26, EXO 2-Aza-6-(4-((5-cyanothien-2-yl)methylthio)-1,2,5-thiadiaz-3-yl)-bicyclo[2.2.2]octane] | 20 |  | 
19 | CCCCCCSc1nsnc1C1CC2CCC1NC2 (stereo not drawn) [Compound 28, EXO 2-Aza-6-(4-hexylthio-1,2,5-thiadiaz-3-yl)bicyclo[2.2.2]octane] | 62 |  | 
20 | CCCCCCOc1nsnc1C1CC2CCC1N(C)C2 (single isomer, unassigned) [Compound 8, EXO 2-Aza-6-(4-hexyloxy-1,2,5-thiadiaz-3-yl)-2-methylbicyclo[2.2.2]octane] | 58 |  | 
21 | FC(F)(F)c1ccc(CSc2nsnc2C2CC3CCC2NC3)cc1 (stereo not drawn) [Compound 22, EXO 2-Aza-6-(4-(((4-trifluoromethyl)phenyl)methylthio)-1,2,5-thiadiaz-3-yl)-bicyclo[2.2.2]octane] | 444 |  | 
22 | FC(F)(F)c1ccc(COc2nsnc2C2CC3CCC2NC3)cc1 (stereo not drawn) [Compound 32, EXO 2-Aza-6-(4-((4-trifluoromethylphenyl)methoxy)-1,2,5-thiadiaz-3-yl)-bicyclo[2.2.2]octane] | 244 |  | 
23 | CCCCCCOc1nsnc1C1CC2CCC1N(C)C2 (single isomer, unassigned) [Compound 7, ENDO 2-Aza-6-(4-hexyloxy-1,2,5-thiadiaz-3-yl)-2-methylbicyclo[2.2.2]octane] | 21 |  | 
24 | CC(C)CCCSc1nsnc1C1CC2CCC1NC2 (stereo not drawn) [Compound 18, ENDO 2-Aza-6-(4-((4-methylpentyl)thio)-1,2,5-thiadiaz-3-yl)bicyclo[2.2.2]octane] | 13 |  | 
25 | CCCOc1nsnc1C1CC2CCC1NC2 (stereo not drawn) [Compound 13, EXO 2-Aza-6-(4-propoxy-1,2,5-thiadiaz-3-yl)bicyclo[2.2.2]octane] | 172 | 263 | 
